Assay results as given in publication PMC11901911, “Diverse Structures of Tea Polyphenols from Rougui Wuyi Rock Tea and Their Potential as Inhibitor of 3C-like Protease” (Molecules, 2025).
Read-outs that look alike come from different tables or passages of the source.

Experiments:
[1] = biological target: T1, SARS-CoV-2 3CLpro (Severe acute respiratory syndrome coronavirus 2, UniProt P0DTD1); assay: biochemical; conditions: for inhibition at 100 µM: compound concentration 100 μM; for inhibition at 100 µM / inhibition at 10 µM: read-out: Inhibition rate (%) against 3CLpro; for IC50: FRET assay, serial dilution, read-out: IC50 against SARS-CoV-2 3CLpro; for inhibition at 10 µM: compound concentration 10 μM
T1 construct: The kit contains assay buffer (125 mL, blank control), 2019-nCoV-2 3CLpro (500 μL), substrate (1 mL); purchased Beyotime Biotechnology (Shanghai, China) P0312M

[2] = biological target: T1, SARS-CoV-2 3CLpro; design: method as in PMID 32963564; conditions: in vitro; read-out: IC50 on SARS-CoV-2 3CLpro protein activity; cited from earlier work

Structure (SMILES) | inhibition at 100 µM [1] [%] | IC50 [1] [µM] | inhibition at 10 µM [1] [%] | IC50 [2] [µM]
Oc1cc(O)c2c(c1)O[C@H](c1ccc(O)c(O)c1)[C@H](O)C2 [Compound 1, (−)-epicatechin] | > 50 | – | – | –
Oc1cc(O)c2c(c1)O[C@H](c1cc(O)c(O)c(O)c1)[C@H](O)C2 [Compound 4, (−)-epigallocatechin] | – | 12 ± 1.9 | > 50 | –
O=C(O[C@@H]1Cc2c(O)cc(O)cc2O[C@@H]1c1cc(O)c(O)c(O)c1)c1cc(O)c(O)c(O)c1 [Compound 5, (−)-epigallocatechin-3-O-gallate] | – | – | > 50 | –
COc1cc(C(=O)O[C@@H]2Cc3c(O)cc(O)cc3O[C@@H]2c2cc(O)c(O)c(O)c2)cc(O)c1O [Compound 6, (−)-epigallocatechin-3-(3′-O-methyl)-gallate] | – | 9.8 ± 0.4 | > 50 | –
O=C(O[C@@H]1Cc2c(O)cc(O)cc2O[C@@H]1c1ccc(O)cc1)c1cc(O)c(O)c(O)c1 [Compound 7, (−)-epiafzelechin-3-O-gallate] | > 50 | – | – | –
O=C(O[C@H]1Cc2c(O)cc(O)cc2O[C@@H]1c1cc(O)c(O)c(O)c1)c1cc(O)c(O)c(O)c1 [Compound 9, (−)-gallocatechin-3-O-gallate] | – | – | > 50 | –
CCN1C(=O)CC[C@@H]1c1c(O)cc2c(c1O)C[C@@H](O)[C@@H](c1cc(O)c(O)c(O)c1)O2 [Compound 11, 6-(5″R)-N-ethyl-2-pyrrolidinone-epigallocatechin] | > 50 | 22.4 ± 5.8 | – | –
CCN1C(=O)CC[C@H]1c1c(O)cc2c(c1O)C[C@@H](O)[C@@H](c1cc(O)c(O)c(O)c1)O2 [Compound 12, 6-(5″S)-N-ethyl-2-pyrrolidinone-epigallocatechin] | > 50 | 26.8 ± 0.9 | – | –
CCN1C(=O)CC[C@H]1c1c(O)cc(O)c2c1O[C@H](c1cc(O)c(O)c(O)c1)[C@H](O)C2 [Compound 14, puerin V] | > 50 | 14.9 ± 1.4 | – | –
CCN1C(=O)CC[C@@H]1c1c(O)cc(O)c2c1O[C@H](c1cc(O)c(O)c(O)c1)[C@H](O)C2 [Compound 15, puerin VI] | > 50 | 14.5 ± 1.1 | – | –
COc1cc(C(=O)O[C@@H]2Cc3c(O)cc(O)cc3O[C@@H]2c2cc(O)c(O)c(O)c2-c2c([C@H]3Oc4cc(O)cc(O)c4C[C@H]3O)cc(O)c(O)c2O)cc(O)c1O [Compound 20, Epigallocatechin-(2′→2′)-epigallocatechin-3-(3″-O-methyl)-gallate] | > 50 | 42.1 | – | –
O=C(O[C@@H]1Cc2c(O)cc(O)cc2O[C@@H]1c1cc(O)c(O)c(O)c1-c1c([C@H]2Oc3cc(O)cc(O)c3C[C@H]2OC(=O)c2cc(O)c(O)c(O)c2)cc(O)c(O)c1O)c1cc(O)c(O)c(O)c1 [Compound 21, theasinensin A] | > 50 | – | – | –
C[C@@H]1O[C@@H](OC[C@H]2O[C@@H](Oc3c(-c4ccc(O)cc4)oc4cc(O)cc(O)c4c3=O)[C@H](OC(=O)/C=C\c3ccc(O)cc3)[C@@H](O)[C@H]2O)[C@H](O)[C@H](O[C@@H]2O[C@H](CO)[C@@H](O)[C@H](O)[C@H]2O)[C@H]1O [Compound 32, Kaempferol-3-O-[2″-O-(Z)-p-coumaroyl] [β-D-glucopyranosyl-(1→3)-O-α-L-rhamnopyranosyl-(1→6)]-β-D-galactopyranoside] | > 50 | 61.1 | – | –
O=c1c(O)cc([C@H]2Oc3cc(O)cc(O)c3C[C@H]2O)cc2c([C@H]3Oc4cc(O)cc(O)c4C[C@H]3O)cc(O)c(O)c12 [theaflavin] | – | – | – | 15
